Experimental data taken from article PMC1241434 (Environmental Health Perspectives, 2003).

Experiments:
[1] = target: T1, human estrogen receptor-alpha (hER alpha) (Homo sapiens, UniProt P03372); experiment: hER alpha reporter gene assay in CHO cells, agonist mode; conditions: for estrogenic activity of steroids: at the concentrations tested; for hER-mediated transcriptional activity (estrogenic activity): 10^-5 M, absence of E2
T1 sequence (P03372 1-595): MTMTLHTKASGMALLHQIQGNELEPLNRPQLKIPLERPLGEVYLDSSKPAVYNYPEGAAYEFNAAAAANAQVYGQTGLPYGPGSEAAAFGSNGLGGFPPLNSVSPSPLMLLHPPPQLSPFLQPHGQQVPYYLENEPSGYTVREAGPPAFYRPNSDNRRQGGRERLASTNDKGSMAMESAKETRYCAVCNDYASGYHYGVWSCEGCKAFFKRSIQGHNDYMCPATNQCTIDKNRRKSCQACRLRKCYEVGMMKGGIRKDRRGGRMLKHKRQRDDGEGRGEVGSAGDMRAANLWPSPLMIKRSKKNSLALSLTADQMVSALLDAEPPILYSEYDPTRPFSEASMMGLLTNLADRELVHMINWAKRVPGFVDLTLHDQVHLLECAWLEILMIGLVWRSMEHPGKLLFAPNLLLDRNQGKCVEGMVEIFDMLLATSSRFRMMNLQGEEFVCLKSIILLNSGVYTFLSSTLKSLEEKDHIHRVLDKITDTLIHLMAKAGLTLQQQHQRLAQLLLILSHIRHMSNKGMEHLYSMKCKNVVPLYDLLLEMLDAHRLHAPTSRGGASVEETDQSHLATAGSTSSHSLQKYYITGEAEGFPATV

[2] = target: T2, human androgen receptor (hAR) (Homo sapiens, UniProt P10275); experiment: hAR reporter gene assay in CHO cells, agonist mode; conditions: for hAR-mediated transcriptional activity (androgenicity): 10^-5 M, absence of DHT
T2 sequence (P10275 1-920): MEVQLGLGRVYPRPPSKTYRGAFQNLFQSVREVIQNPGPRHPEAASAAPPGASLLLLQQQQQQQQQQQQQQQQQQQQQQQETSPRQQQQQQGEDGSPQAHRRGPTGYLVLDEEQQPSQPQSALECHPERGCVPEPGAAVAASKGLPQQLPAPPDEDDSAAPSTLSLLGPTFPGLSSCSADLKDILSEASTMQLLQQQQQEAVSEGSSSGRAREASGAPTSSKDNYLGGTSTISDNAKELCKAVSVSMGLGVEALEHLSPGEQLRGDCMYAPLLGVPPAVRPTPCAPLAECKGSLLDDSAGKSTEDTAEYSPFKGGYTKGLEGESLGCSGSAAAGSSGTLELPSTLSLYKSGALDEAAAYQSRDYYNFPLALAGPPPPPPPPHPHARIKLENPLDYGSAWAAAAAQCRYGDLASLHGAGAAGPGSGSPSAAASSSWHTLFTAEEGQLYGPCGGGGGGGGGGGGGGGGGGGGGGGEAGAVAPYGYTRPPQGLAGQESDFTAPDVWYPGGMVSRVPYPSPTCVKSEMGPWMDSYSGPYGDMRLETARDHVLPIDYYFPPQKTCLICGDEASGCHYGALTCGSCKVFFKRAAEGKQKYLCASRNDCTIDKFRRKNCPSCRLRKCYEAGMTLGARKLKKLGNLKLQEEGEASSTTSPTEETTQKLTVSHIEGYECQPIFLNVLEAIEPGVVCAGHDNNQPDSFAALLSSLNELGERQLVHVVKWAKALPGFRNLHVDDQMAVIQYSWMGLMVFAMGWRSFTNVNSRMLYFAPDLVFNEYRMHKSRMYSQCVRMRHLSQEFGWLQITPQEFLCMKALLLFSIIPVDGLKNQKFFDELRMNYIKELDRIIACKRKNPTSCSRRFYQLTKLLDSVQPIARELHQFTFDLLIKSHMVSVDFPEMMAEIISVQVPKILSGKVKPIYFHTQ

human ER = target: T3, human ER (Homo sapiens, UniProt P03372); experiment: Competitive binding assay for ER; conditions: for RBA-E (relative binding affinity for hER): ratio of IC50 of DES to that of test compound, DES set at 100
T3 sequence (P03372 1-595): T1 sequence (P03372 1-595)

[3] = target: T2, human androgen receptor (hAR); experiment: hAR reporter gene assay in CHO cells, antagonist mode; conditions: for inhibition of hAR-mediated transcriptional activity by DHT: 10^-5 M, presence of 10^-10 M DHT
CHO-K1 cells = experiment: Renilla luciferase activity as toxicity control in transfected CHO cells; conditions: conditions of the hAR antagonist assay, data not shown
human AR = target: T4, human AR (Homo sapiens, UniProt P10275); experiment: Competitive binding assay for AR; conditions: ratio of IC50 of mibolerone to that of test compound, mibolerone set at 100
T4 sequence (P10275 1-920): T2 sequence (P10275 1-920)

[4] = target: T1, human estrogen receptor-alpha (hER alpha); experiment: hER alpha reporter gene assay in CHO cells, antagonist mode; conditions: 10^-5 M, presence of 10-11 M E2, versus vehicle
estrogenic activity = conditions: 10^-5 M; ref Nishikawa et al. (2000); cited from earlier work

| Compound | estrogenic activity of steroids [1] | RBA-E (relative binding affinity for hER) (human ER) | inhibition of hAR-mediated transcriptional activity by DHT [3] | effect on cellular viability (Renilla luciferase activity) (CHO-K1 cells) | RBA-A (relative binding affinity for hAR) (human AR) | hAR-mediated transcriptional activity (androgenicity) [2] | effect on estrogenic activity of E2 (antiestrogenic activity) [4] | hER-mediated transcriptional activity (estrogenic activity) [1] | other results |
| --- | --- | --- | --- | --- | --- | --- | --- | --- | --- |
| C[C@]12CC[C@H]3[C@@H](CCC4=CC(=O)CC[C@@]43C)[C@@H]1CC[C@@H]2O [testosterone, reference compound] | positive by this assay at high concentrations |  |  |  |  |  |  |  |  |
| C[C@]12CC[C@@H]3c4ccc(O)cc4CC[C@H]3[C@@H]1CCC2=O [estrone, reference compound] |  |  |  |  |  |  |  |  | androgenic activity of steroids ([2]; at the concentrations tested): only low activity |
| Nc1ccc(Oc2c(Cl)cc(Cl)cc2Cl)cc1 [CNP-amino, 2,4,6-trichlorophenyl-4-aminophenyl ether] |  | 0.036 | inhibited | did not affect the cellular viability | 0.33 | no androgenicity | did not show any significant differences | potent estrogenic activity | antiandrogen intensity relative to CNP ([3]; ratio to CNP): more than 1/10; estrogenic activity, fold higher than p,p-DDT ([1]; versus p,p-DDT): about 4 fold |
| O=[N+]([O-])c1ccc(Oc2c(Cl)cc(Cl)cc2Cl)cc1 [CNP, 2,4,6-trichlorophenyl-4-nitrophenyl ether] |  | < 0.0009 | inhibited | did not affect the cellular viability | 8.64 | weakly androgenic | did not show any significant differences | potent estrogenic activity | effect on the binding of E2 to hER (human ER): very low; antiandrogenic potency, fold higher than o,p-DDT ([3]; IC50 ratio versus o,p-DDT): ~10 fold; antiandrogenic potency, fold higher than p,p-DDE ([3]; IC50 ratio versus p,p-DDE): ~14 fold; antiandrogenic potency, fold higher than vinclozolin ([3]; IC50 ratio versus vinclozolin): approximately 3.5 fold; estrogenic activity in yeast two-hybrid assay (estrogenic activity): negative |
| CC(=O)[C@H]1CC[C@H]2[C@@H]3CCC4=CC(=O)CC[C@]4(C)[C@H]3CC[C@]12C [progesterone, reference compound] | inactive |  |  |  |  |  |  |  |  |
| Clc1ccc(C(c2ccccc2Cl)C(Cl)(Cl)Cl)cc1 (centres unmarked) [o,p-DDT, 1,1,1-trichloro-2-(p-chlorophenyl)-2-(o-chlorophenyl)ethane, reference compound] |  |  |  |  |  |  | did not show any significant differences | potent estrogenic activity |  |
